This is an account of results in US9394284B2, “Compounds act at multiple prostaglandin receptors giving a general anti-inflammatory response” (Allergan, Inc., priority 2010, dated 2016).

Type in all cases: cell-based
Experiment [1] has as its target T1, human prostanoid EP4 receptor (Homo sapiens, UniProt P35408).
T1 construct: expressed in transfected cells
Put plainly: FLIPR Ca2+ signaling antagonist assay, EP4 receptor stable cell line. The settings on record: HEK-293 EBNA stable cell line; standard agonist PGE2; NA = inactive (no antagonism or Kb 10,000 nM); PAg, Ag not defined. A digest of the protocol: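 Peak Fluo-4 fluorescence (ex 470–495, em 515–575 nm) was read for 3.5 min on FLIPR after agonist injection and expressed relative to 10^−6 M standard agonist. Cells were HEK-293 EBNA transfectants. Test compound was added 4.5 min beforehand at 0.1–30 μM, or 0.067–1 μM for TP.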

Experiment [2] has as its target T2, human prostanoid EP1 receptor (Homo sapiens, UniProt P34995).
T2 construct: expressed in transfected cells
T2 sequence (P34995 1-402): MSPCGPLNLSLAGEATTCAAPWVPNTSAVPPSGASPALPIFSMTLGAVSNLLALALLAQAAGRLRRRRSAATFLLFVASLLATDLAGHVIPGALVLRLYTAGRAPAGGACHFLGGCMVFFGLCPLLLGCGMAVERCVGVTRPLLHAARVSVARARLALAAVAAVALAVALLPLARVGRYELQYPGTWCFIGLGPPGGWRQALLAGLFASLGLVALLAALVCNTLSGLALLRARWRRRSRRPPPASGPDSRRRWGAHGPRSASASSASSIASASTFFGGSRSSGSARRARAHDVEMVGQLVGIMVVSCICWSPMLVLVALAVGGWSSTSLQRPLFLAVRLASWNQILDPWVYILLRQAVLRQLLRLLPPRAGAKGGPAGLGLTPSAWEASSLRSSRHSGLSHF
Kind of experiment: FLIPR Ca2+ signaling antagonist assay, EP1 receptor stable cell line. The settings on record: HEK-293 EBNA stable cell line; standard agonist PGE2; NA = inactive (no antagonism or Kb 10,000 nM); PAg, Ag not defined. A digest of the protocol: (§1)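 HEK-293 EBNA cells stably expressing receptor (EP3 co-expressed with chimeric Gqi; EP1, IP, TP without exogenous G protein), Fluo-4 loaded, read on FLIPR at 37° C. Antagonist added 4.5 min before standard agonist (EP1/EP3 PGE2, IP cicaprost 10^−11–10^−5 M; TP U-46619 10^−12–10^−6 M); antagonist 0.1–30 μM, TP 0.067–1 μM; peak fluorescence relative to 10^−6 M agonist.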

For experiment [3], the target named is T3, human prostanoid IP receptor (Homo sapiens, UniProt P43119).
T3 construct: expressed in transfected cells
T3 sequence (P43119 whole entry): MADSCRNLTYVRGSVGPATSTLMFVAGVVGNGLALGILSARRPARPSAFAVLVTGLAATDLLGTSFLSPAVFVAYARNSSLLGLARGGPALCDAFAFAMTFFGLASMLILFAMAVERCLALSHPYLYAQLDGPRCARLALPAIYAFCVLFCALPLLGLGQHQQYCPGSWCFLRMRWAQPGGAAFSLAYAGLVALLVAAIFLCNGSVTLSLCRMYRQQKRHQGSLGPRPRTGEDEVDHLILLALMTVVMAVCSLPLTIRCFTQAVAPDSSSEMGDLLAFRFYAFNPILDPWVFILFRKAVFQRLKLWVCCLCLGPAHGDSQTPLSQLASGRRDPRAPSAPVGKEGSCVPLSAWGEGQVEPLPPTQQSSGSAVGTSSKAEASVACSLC
Put plainly: FLIPR Ca2+ signaling antagonist assay, IP receptor stable cell line. The settings on record: HEK-293 EBNA stable cell line; standard agonist Cicaprost; NA = inactive (no antagonism or Kb 10,000 nM); PAg, Ag not defined. In outline: as §1

For experiment [4], the target named is T4, human prostanoid TP receptor (Homo sapiens, UniProt P21731).
T4 construct: expressed in transfected cells
T4 sequence (P21731 1-343): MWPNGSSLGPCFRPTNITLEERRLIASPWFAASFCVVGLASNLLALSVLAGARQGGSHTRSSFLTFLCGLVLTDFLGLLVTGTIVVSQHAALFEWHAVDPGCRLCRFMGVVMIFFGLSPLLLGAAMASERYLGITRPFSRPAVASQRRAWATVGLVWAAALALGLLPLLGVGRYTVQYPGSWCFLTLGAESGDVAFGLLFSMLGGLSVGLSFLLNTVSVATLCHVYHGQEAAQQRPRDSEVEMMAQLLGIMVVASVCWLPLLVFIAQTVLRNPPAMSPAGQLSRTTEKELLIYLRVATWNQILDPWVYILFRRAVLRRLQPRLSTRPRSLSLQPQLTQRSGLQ
Put plainly: FLIPR Ca2+ signaling antagonist assay, TP receptor stable cell line. The settings on record: HEK-293 EBNA stable cell line; standard agonist U-46619; NA = inactive (no antagonism or Kb 10,000 nM); PAg, Ag not defined. A digest of the protocol: as §1

T1 sequence (P35408 whole entry): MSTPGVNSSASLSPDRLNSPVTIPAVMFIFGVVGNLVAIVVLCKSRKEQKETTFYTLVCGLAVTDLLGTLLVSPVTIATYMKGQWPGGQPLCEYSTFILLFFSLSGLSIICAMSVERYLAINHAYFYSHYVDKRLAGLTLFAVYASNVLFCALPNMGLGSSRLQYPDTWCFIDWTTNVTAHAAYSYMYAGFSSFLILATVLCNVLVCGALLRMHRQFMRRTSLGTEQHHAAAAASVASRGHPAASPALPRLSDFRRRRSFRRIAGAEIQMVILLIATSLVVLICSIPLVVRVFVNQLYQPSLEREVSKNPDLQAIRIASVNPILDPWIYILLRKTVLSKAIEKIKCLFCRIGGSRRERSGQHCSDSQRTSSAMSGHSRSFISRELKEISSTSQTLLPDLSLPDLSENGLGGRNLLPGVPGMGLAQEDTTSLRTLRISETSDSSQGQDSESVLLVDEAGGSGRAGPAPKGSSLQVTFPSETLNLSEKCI

A word on the Kb: it is the equilibrium dissociation constant of an antagonist, usually derived from a functional assay. Low readings indicate higher antagonist affinity, high ones lower antagonist affinity. `CCC(CC)COc1ccc(Cl)cc1Cn1nc(CC(C)C(=O)O)cc1C` (racemic) [Example 68, 3-{1-[5-Chloro-2-(2-ethyl-butoxy)-benzyl]-5-methyl-1H-pyrazol-3-yl}-2-methyl-propionic acid]: the antagonist equilibrium constant (Kb) in experiment [1] came to 130 nM; in experiment [2], 70 nM; in experiment [3], 5700 nM; in experiment [4] it was 16 nM.
For `CCCCC(CC)COc1ccc(Br)cc1Cn1nc(CCC(=O)O)cc1C` (centres unmarked) [Example 6, 3-[1-(5-Bromo-2-(2-ethyl-hexyloxy)-benzyl)-5-methyl-1H-pyrazol-3-yl]-propionic acid], the Kb came out at 1100 nM in experiment [1], 380 nM in experiment [2], 1800 nM in experiment [3] and 10 nM in experiment [4].
The like results for `CCCC(C)COc1ccc(Br)cc1Cn1nc(CCC(=O)O)cc1C` (centres unmarked) [Example 8, 3-[1-(5-Bromo-2-(2-methyl-pentyloxy)-benzyl)-5-methyl-1H-pyrazol-3-yl]-propionic acid] were, in that order, 400 nM, 40 nM, 1700 nM and 1 nM.
Turning to `Cc1cc(CCC(=O)O)nn1Cc1cc(Br)ccc1OCC1(C(F)(F)F)CCC1` [Example 13, 3-[1-(5-Bromo-2-(1-trifluoromethylcyclobutylmethoxy)-benzyl)-5-methyl-1H-pyrazol-3-yl]-propionic acid], the Kb in experiment [1] came out at 1000 nM; in experiment [2] it was 30 nM; in experiment [3], 8800 nM; in experiment [4] it was 10 nM.
In the case of `CCC(CC)COc1ccc(Br)cc1Cn1nc(CCC(=O)NS(=O)(=O)C(F)(F)F)cc1C` [Example 17, N-(3-{1-[5-Bromo-2-(2-ethyl-butoxy)-benzyl]-5-methyl-1H-pyrazol-3-yl}-propionyl)-C,C,C-trifluoro-methanesulfonamide], the Kb is 35 nM in experiment [1], 15 nM in experiment [2], 2700 nM in experiment [3] and less than 1 nM in experiment [4].
The like results for `Cc1cc(CCC(=O)NS(=O)(=O)C(F)(F)F)nn1Cc1cc(Br)ccc1OCC(C)C` [Example 19, N-(3-{1-[5-Bromo-2-isobutoxybenzyl]-5-methyl-1H-pyrazol-3-yl}-propionyl)-C,C,C-trifluoro-methanesulfonamide] were, in that order, 30 nM, 14 nM, 1400 nM and 1 nM.
The matching figures for `Cc1cc(CCC(=O)NS(=O)(=O)c2ccccc2)nn1Cc1cc(Cl)ccc1OCc1ccc(Cl)cc1` [Example 24, N-(3-[1-(5-Chloro-2-(4-chlorobenzyloxy)benzyl)-5-methyl-1H-pyrazol-3-yl]-propionyl)benzenesulfonamide]: 900 nM, 50 nM, 1000 nM and 30 nM.
Consider `Cc1cc(CCC(=O)NS(=O)(=O)CC(F)(F)F)nn1Cc1cc(Cl)ccc1OCc1ccc(Cl)cc1` [Example 25, 2,2,2-trifluoroethanesulfonic acid-(3-[1-(5-Chloro-2-(4-chlorobenzyloxy)benzyl)-5-methyl-1H-pyrazol-3-yl]-propionyl)amide], for which the “EP4 (FLIPR) Kb” value in experiment [1] is listed as “Ag”. The figures for the Kb in experiment [2], in experiment [3] and in experiment [4] were 6 nM, 7900 nM and less than 1 nM, respectively.
On to `Cc1cc(CCC(=O)O)nn1Cc1cc(Cl)ccc1OCc1ccc(Cl)cc1Cl` [Example 26, 3-[1-(5-Chloro-2-(2,4-dichlorobenzyloxy)benzyl)-5-methyl-1H-pyrazol-3-yl]-propionic acid], for which the Kb in experiment [1] was 8400 nM; in experiment [2], 3 nM; in experiment [3], 1000 nM. Moreover, in experiment [4], the “TP (FLIPR) Kb” value is given as “PAg”.
For the compound `Cc1cc(CCC(=O)NS(=O)(=O)C(F)(F)F)nn1Cc1cc(Cl)ccc1OCc1ccc(Cl)cc1Cl` [Example 27, N-(3-[1-(5-Chloro-2-(2,4-dichlorobenzyloxy)benzyl)-5-methyl-1H-pyrazol-3-yl]-propionyl)C,C,C-trifluoromethanesulfonamide], the Kb in experiment [1] was 150 nM; in experiment [3] it was 400 nM. In addition, the “EP1 (FLIPR) Kb” value in experiment [2] is “PAg”. Further, in experiment [4], the “TP (FLIPR) Kb” value is given as “PAg”.
As to `Cc1cc(CCC(=O)O)nn1Cc1cc(Cl)ccc1OCC(C)(C)C` [Example 35, 3-[1-(5-Chloro-2-(2,2-dimethylropoxy)benzyl)-5-methyl-1H-pyrazol-3-yl]-propionic acid], the antagonist dissociation constant (Kb) was determined as 500 nM in experiment [1], 100 nM in experiment [2], 3700 nM in experiment [3] and 20 nM in experiment [4].
Turning to `Cc1cc(CCC(=O)O)nn1Cc1cc(Cl)ccc1OCCCC(C)C` [Example 40, 3-[1-(5-Chloro-2-(4-methylpentyloxy)benzyl)-5-methyl-1H-pyrazol-3-yl]-propionic acid], the antagonist dissociation constant (Kb) in experiment [1] is 1700 nM; in experiment [2], 200 nM; in experiment [3], 720 nM; in experiment [4], 40 nM.
The like results for `Cc1cc(CCC(=O)NS(=O)(=O)C(F)(F)F)nn1Cc1cc(Cl)ccc1OCC1CCCC1` [Example 43, N-(3-[1-(5-Chloro-2-cyclopentylmethoxybenzyl)-5-methyl-1H-pyrazol-3-yl]-propionyl)C,C,C-trifluoromethanesulfon amide] were, in that order, 80 nM, 6 nM, 800 nM and 2 nM.
With `Cc1cc(CCC(=O)O)nn1Cc1cc(OC(F)(F)F)ccc1OCC1CCCC1` [Example 50, 3-[1-(2-Cyclopentylmethoxy-5-trifluoromethoxy-benzyl)-5-methyl-1H-pyrazol-3-yl]-propionic acid], the antagonist dissociation constant (Kb) in experiment [1] was 200 nM; in experiment [2] it was 35 nM; in experiment [3], 1500 nM; in experiment [4] it was 20 nM.
For `Cc1cc(CCC(=O)O)nn1Cc1cc(OC(F)(F)F)ccc1OCc1ccc(Cl)cc1` [Example 51, 3-[1-[2-(4-Chloro-benzyloxy)-5-trifluoromethoxy-benzyl]-5-methyl-1H-pyrazol-3-yl]-propionic acid], the Kb in experiment [1] is 7000 nM; in experiment [2], 15 nM. Besides, in experiment [3], the “IP (FLIPR) Kb” value is listed as “PAg”. For the same compound, the “TP (FLIPR) Kb” value in experiment [4] was “Ag”.
The matching figures for `Cc1cc(CCC(=O)O)nn1Cc1cc(C(F)(F)F)ccc1OCc1ccc(Cl)cc1` [Example 52, 3-[1-[2-(4-Chloro-benzyloxy)-5-trifluoromethyl-benzyl]-5-methyl-1H-pyrazol-3-yl]-propionic acid]: 1500 nM, 5 nM, “PAg” and “PAg”.
With `CCC(CC)COc1ccc(Br)cc1Cn1nc(CCC(=O)O)cc1C(C)C` [Example 55, 3-{1-[5-Bromo-2-(2-ethyl-butoxy)-benzyl]-5-isopropyl-1H-pyrazol-3-yl}-propionic acid], the Kb is 80 nM in experiment [1], 60 nM in experiment [2], 1100 nM in experiment [3] and 250 nM in experiment [4].
The matching figures for `CCCc1cc(CCC(=O)O)nn1Cc1cc(Br)ccc1OCC(CC)CC` [Example 56, 3-{1-[5-Bromo-2-(2-ethyl-butoxy)-benzyl]-5-propyl-1H-pyrazol-3-yl}-propionic acid]: 3 nM, 60 nM, 1300 nM and 70 nM.
The matching figures for `CCC(CC)COc1ccc(Br)cc1Cn1nc(CCC(=O)O)cc1C(C)(C)C` [Example 57, 3-{1-[5-Bromo-2-(2-ethyl-butoxy)-benzyl]-5-tert-butyl-1H-pyrazol-3-yl}-propionic acid]: 700 nM, 150 nM, 800 nM and 500 nM.
For the compound `CCC(CC)COc1ccc(Br)cc1Cn1nc(CCC(=O)O)cc1C(F)(F)F` [Example 58, 3-{1-[5-Bromo-2-(2-ethyl-butoxy)-benzyl]-5-trifluororomethyl-1H-pyrazol-3-yl}-propionic acid], in experiment [1], the “EP4 (FLIPR) Kb” value is reported as “PAg”. Also, the values for the Kb in experiment [2] and in experiment [4] were 370 nM and 150 nM, respectively. Besides, in experiment [3], the “IP (FLIPR) Kb” value is recorded as “PAg”.
